Consider two compounds from US6235891A, “Glucocorticoid receptor agonist and decreased PP5” (South Alabama Medical Science Foundation, priority 1999, dated 2001).

Series [1] concerns PP5 mRNA. Description: Northern blot analysis of PP5 mRNA expression in A549 cells. It counts as cell-based, human. The settings on record: doses of 25 to 500 nM, read-out: IC50 for reduction of PP5 mRNA levels. An excerpt: The oligonucleotides shown in Table 1 were designed using the Genbank sequences HSSERTHRP (Genbank accession number X92121), HSRNAPPP5 (Genbank accession number X89416) and PPP5C (Genbank accession number U25174), synthesized and tested for inhibition of PP5 mRNA expression in A549 cells using a Northern blot assay. All oligonucleotides shown in Table 1 are chimeric oligonucleotides with central 2'-deoxy "gaps," which have phosphorothioate backbones, flanked on both sides by 2'-methoxyethoxy (2'-MOE) "wings" (shown in bold), which have phosphodiester backbones. All cytosines in the 2'-MOE wings are 5-methylcytosines.
In the initial screen, A549 cells were treated with oligonucleotides at a concentration of 300 nM oligonucleotide for four hours in the presence of […] lipofectin. Results were normalized and expressed as a percent of control. The effect of each oligonucleotide on levels of PP5 mRNA, expressed as approximate percent inhibition compared to control, is shown in Table 1. In this initial screen, oligonucleotides giving a reduction of PP5 mRNA of approximately 50% or greater were considered active. […] These sequences (SEQ ID NO: 1, 2, 3, 4, 6, 7 and 12, respectively, SEQ ID Nos shown in bold in Table 1) are therefore preferred.
These oligonucleotides were tested for their ability to reduce PP5 mRNA levels in A549 cells, using oligonucleotide doses of 25 to 500 nM.
The human lung tumor cell line A549 was obtained from the American Type Culture Collection (Rockville Md.) and were grown in DMEM (Gibco BRL, Gaithersburg Md.), supplemented with 10% fetal calf. Cells were seeded on 60 mm plates. When they reached 70% confluency, they were washed with DMEM and 1 ml of DMEM containing 15 μg/ml DOTMA/DOPE (Lipofectin®, GIBCO-BRL) and oligonucleotide at desired concentration was added. Duplicate dishes were used for each treatment condition. After 4 hours of treatment at 37°, cells were washed and cultured in fresh DMEM containing 10% fetal bovine serum for an additional 17 hours. Cells were then harvested and total RNA was extracted with TRIzol Reagent (GIBCO-BRL) according to manufacturer's protocol. Total RNA (20 μg) was fractionated on a 1% agarose gel containing formaldehyde, and transferred to a DURLON-UV (Stratagene) nylon membrane. Following UV crosslinking, the filters were hybridized with the appropriate protein phosphatase probe. The ^32 P-labeled human PP cDNA probes are generated with DECAPrime® DNA Labeling Kit (Ambion) according to the manufacturer's protocol. Hybridization was performed in a hybridization solution containing 50% formamide at 42° for 16 hours. This was followed by two low stringency washes (2×SSC) at room temperature and two high stringency washes (0.1×SSC/0.5% SDS) at 55° C. Hybridization signals were visualized by autoradiography, and filters were then stripped and reprobed with a ^32 P-labeled glyceraldehyde-3-phosphate dehydrogenase (GAPDH) probe to confirm equal loading. The densities of hybridization signals were measured with the NIH Image program (ImagePC).
The cells were harvested, and total RNA was extracted with TRIzol® Reagent according to the methods of the manufacturer. Total RNA (20 μg) was fractionated on 1% agarose gels containing formaldehyde and transferred to DURLON-UV nylon membranes (Stratagene). Following UV cross-linking, the filters were hybridized with a [α^32 P]probe for human PP5. The human PP5 cDNA probe was generated from the full length coding region of PP5 and [α^32 P]-dATP was labeled with DECAprime® DNA Labeling Kit according to the manufacturer's protocol. Hybridization was performed in the presence of 50% formamide, 0.1 M Pipes, 0.8 M NaCl, 5×Denhardt's solution, 100 μg/ml denatured herring sperm DNA, 1×10^6 cpm/ml [α-^32 P]-labeled probe and 10% dextran sulfate at 42° C. for 16 hours. Following hybridization, the membrane was subjected to two low stringency washes (2×SSC) at room temperature and then two high stringency washes (0.1×SSC/0.5% SDS) at 55° C. […]

Series [2] has as its system PP5 mRNA. The series is described as above. Format: cell-based, human. The settings on record: dexamethasone 0-100 nM, 24 hours.

One may read the IC50 as the point on the concentration scale where inhibition reaches its midpoint. Consider “ISIS 15534: chimeric PP5 antisense oligonucleotide, P=O wings, P=S deoxy gap; GGGCCCTATTGCTTGAGTGG, SEQ ID NO: 12 (sugars by position and backbone not given here; chimeric, phosphodiester wings, phosphorothioate deoxy gap)”, for which, in series [1], the half-inhibitory concentration (IC50) was roughly 135 nM.
For `C[C@@H]1C[C@H]2[C@@H]3CCC4=CC(=O)C=C[C@]4(C)[C@@]3(F)[C@@H](O)C[C@]2(C)[C@@]1(O)C(=O)CO` [dexamethasone, reference compound], the “Expression of PP5 mRNA” value in series [2] is recorded as “does not appear to change”.
